Experimental data taken from paper PMC7979765, “trans-Translation inhibitors bind to a novel site on the ribosome and clear Neisseria gonorrhoeae in vivo” (Nature Communications, 2021).
≈ marks a conversion by molar mass, not a printed value. Where “and” joins values, the source holds several entries; their conditions need not be identical. Identical values can stand only once.

How the values were obtained:
[1] = system: Neisseria gonorrhoeae; test: MIC, microbroth dilution, G77L medium; format: cell-based; details: Neisseria gonorrhoeae ATCC 49226; source data, individual replicates
[2] = system: HeLa cells; test: Mammalian cell cytotoxicity (CC50); format: cell-based, human; details: HeLa, replicates
Protocol: The half maximal cytotoxic concentration (CC50) of each compound against HeLa cells (ATCC CCL-2) was measured as previously described. […] The mean values for each biological replicate were averaged, and the CC50 was determined using a 4-parameter nonlinear curve fitting algorithm (GraphPad Prism). The average of the CC50s from two biological replicates was calculated and reported.

[3] = Liver microsome stability, murine; format: in vitro ADME, mouse; details: for Average MLMS t½ / MLMS t½: murine liver microsomes; for Average MLMS t½: average of replicates; for MLMS t½: individual replicates
Protocol: To examine potential for first-pass metabolism of analogs in the liver, the stability of analogs in the presence of liver microsome preparations (Eurofins Discovery for human, dog and rat; Xenotech for mouse) was measured using the method of Kuhnz, et al.[50]. for murine studies and Oback for the dog, human and rat studies. The amount of parent compound remaining after incubation with microsomes in the presence of NADPH over a 30 min time range was measured using a reverse-phase liquid chromatography/mass spectroscopy method that was customized for each compound. Half-lives were calculated using linear regression analysis of several time points.

[4] = Aqueous solubility (nephelometric); format: physicochemical; details: for Solubility: single replicates
[5] = system: Escherichia coli; test: microbe, parasite or virus in culture; format: cell-based; details: E. coli KLE701 (ΔtolC::tet); source data, individual replicates
[6] = system: HeLa cells; test: Mammalian cell cytotoxicity (CC50); format: cell-based, human; details: one value per replicate

| Compound | MIC [1] | NORMALIZED DATA (Fraction DMSO Control) ([2]; [CMPD] 0.78125 µM) | NORMALIZED DATA (Fraction DMSO Control) ([2]; [CMPD] 1.5625 µM) | NORMALIZED DATA (Fraction DMSO Control) ([2]; [CMPD] 3.125 µM) | NORMALIZED DATA (Fraction DMSO Control) ([2]; [CMPD] 6.25 µM) | NORMALIZED DATA (Fraction DMSO Control) ([2]; [CMPD] 12.5 µM) | NORMALIZED DATA (Fraction DMSO Control) ([2]; [CMPD] 25 µM) | NORMALIZED DATA (Fraction DMSO Control) ([2]; [CMPD] 50 µM) | NORMALIZED DATA (Fraction DMSO Control) ([2]; [CMPD] 100 µM) | liver microsome stability (in words) [3] | Average MLMS t½ [3] [min] | MLMS t½ [3] | Average solubility [4] [µM] | Solubility [4] [µM] | MIC [5] | CC50 [6] [µM] |
| --- | --- | --- | --- | --- | --- | --- | --- | --- | --- | --- | --- | --- | --- | --- | --- | --- |
| O=C(Nc1nnc(-c2ccc(F)cc2)o1)N1CCCC1 [MBX-4346] | 3.453 µg/mL (≈ 12.5 µM) | 1.217 Fraction DMSO Control and 0.9631 Fraction DMSO Control and 1.029 Fraction DMSO Control | 1.148 Fraction DMSO Control and 0.9904 Fraction DMSO Control and 1.014 Fraction DMSO Control | 1.14 Fraction DMSO Control and 1.021 Fraction DMSO Control and 1.0883 Fraction DMSO Control | 1.122 Fraction DMSO Control and 0.9837 Fraction DMSO Control and 1.041 Fraction DMSO Control | 1.103 Fraction DMSO Control and 1.043 Fraction DMSO Control and 1.0247 Fraction DMSO Control | 1.033 Fraction DMSO Control and 0.9838 Fraction DMSO Control and 0.9917 Fraction DMSO Control | 0.972 Fraction DMSO Control and 0.8011 Fraction DMSO Control and 0.809 Fraction DMSO Control | 0.8767 Fraction DMSO Control and 0.7312 Fraction DMSO Control and 0.7411 Fraction DMSO Control | limited | 25 | 30.1 min and 20.5 min | >200 | >200 | 27.6271 µg/mL (≈ 100 µM) | ≥ 100 |
| O=C(Nc1nnc(-c2ccc(F)cc2)o1)N1CCCCC1 [MBX-4699] | 0.9072 µg/mL (≈ 3.13 µM) | 1.206 Fraction DMSO Control and 0.9471 Fraction DMSO Control and 1 Fraction DMSO Control | 1.141 Fraction DMSO Control and 0.9447 Fraction DMSO Control and 0.9657 Fraction DMSO Control | 1.163 Fraction DMSO Control and 1.061 Fraction DMSO Control and 1.0891 Fraction DMSO Control | 1.089 Fraction DMSO Control and 1.109 Fraction DMSO Control and 1.081 Fraction DMSO Control | 0.7963 Fraction DMSO Control and 0.7071 Fraction DMSO Control and 0.8639 Fraction DMSO Control | 0.8798 Fraction DMSO Control and 0.8258 Fraction DMSO Control and 0.8774 Fraction DMSO Control | 0.9431 Fraction DMSO Control and 0.7958 Fraction DMSO Control and 0.7843 Fraction DMSO Control | 0.7918 Fraction DMSO Control and 0.6844 Fraction DMSO Control and 0.6971 Fraction DMSO Control | – | 12 | 10.1 min and 13.2 min | 50 | 50 (≈ 14.5 µg/mL) | 7.257 µg/mL (≈ 25 µM) | ≥ 100 |
| O=C(Nc1nnc(-c2ccc(F)cc2)o1)N1CCCCCC1 [MBX-4700] | 0.951 µg/mL and 0.4755 µg/mL | 1.19 Fraction DMSO Control and 0.9349 Fraction DMSO Control and 0.9879 Fraction DMSO Control | 1.113 Fraction DMSO Control and 0.9447 Fraction DMSO Control and 0.9899 Fraction DMSO Control | 1.151 Fraction DMSO Control and 1.008 Fraction DMSO Control and 1.078 Fraction DMSO Control | 0.9458 Fraction DMSO Control and 0.9081 Fraction DMSO Control and 0.9843 Fraction DMSO Control | 0.7537 Fraction DMSO Control and 0.7467 Fraction DMSO Control and 0.8509 Fraction DMSO Control | 0.8669 Fraction DMSO Control and 0.6852 Fraction DMSO Control and 0.8634 Fraction DMSO Control | 0.8891 Fraction DMSO Control and 0.7812 Fraction DMSO Control and 0.7745 Fraction DMSO Control | 0.8207 Fraction DMSO Control and 0.7165 Fraction DMSO Control and 0.6953 Fraction DMSO Control | – | 19 | 16.8 min and 21.8 min | 25 | 25 (≈ 7.61 µg/mL) | 3.804 µg/mL and 7.608 µg/mL | ≥ 100 |
